{"source": "patent US7902226B2", "about": "“Dehalogeno-compounds” (Daiichi Pharmaceutical Co., Ltd., priority 2000, dated 2011)", "key": {"[1]": {"test": "Blood concentration and organ concentration after oral administration (absorption test groups)", "format": "in vivo", "settings": "fasting rats, 20 mg/kg; for Kp / Cmax / AUC(0-t) / half-life: male, Crj: CD IGS, rat; for Cmax / AUC(0-t) / half-life: serum; for AUC(0-t): read-out: Serum AUC0-4h; for half-life: read-out: Serum t1/2 (converted)", "experimental": "For the compound of this invention described as Example 1, the blood concentration and organ concentration after oral administration were determined by the following methods. Measurements were also made by the same methods for Reference drug 1.\n(§1) An administration solution was prepared by dissolving a tested compound to a concentration of 2 mg/ml (as free compound) in distilled water, and using a 2.5 ml disposable syringe or a metal oral probe, the solution was orally administered at a dose of 20 mg/kg to fasting rats (Crj: CD IGS; male; 7-week-old; Charles River Japan, Inc.).\nThe absorption test groups (4 rats per group; total of 6 groups) were killed by exsanguination while under ether anesthetization 0.25, 0.5, 1, 2, 4, or 6 hours after drug administration, and the blood, liver, kidneys, and lungs were sampled. With the blood, serum was sampled by centrifugation (3000 rpm×15 minutes, 4° C.) after coagulation. Tissues were homogenized after adding 3 to 5 ml of 0.1M phosphate buffer solution (pH 7.0) and the centrifugation supernatants (3000 rmpm×15 minutes, 4° C.) were collected.\nDetermination of drug concentrations in liquid samples were quantified by an agar well method bioassay using the B. subtilis ATCC6051 strain as the test organism. A test medium was prepared by inoculating a suspension containing 5×10^7 CFU/ml of spores of the test bacteria at a proportion of 1% into an nutrient agar (Eiken Kagaku) that was sterilized at 121° C. for 15 minutes and then cooled to approximately 50° C. After placing 10 ml each of this medium in a sterilized Petri dish and solidifying horizontally, four holes of 8 mm diameter were made to prepare a test plate medium. The Bioassay System TDA-1 (Dainippon Seiki) was used for preparation of the test plate media. For the measurements, the test samples (diluted with serum or phosphate buffer solution as necessary), serial dilutions of the drug solutions for calibration (two-fold serial dilutions prepared so that the inhibition ring diameter will be approximately 10 to 30 mm), and a reference drug solution (a drug solution of given concentration for correction of the error among plates; normally, a concentration of forming an inhibition ring of approximately […] is used) were prepared, and 50 μL of the test sample (or the drug solution for calibration) were placed in each of two of the four holes of each plate and 50 μL of the reference solution was placed in each of the other two holes. After addition of the sample, the plate medium was set still for 1 hour at 4° C. to perform preliminary dispersion and then culturing at 37° C. was performed for approximately 18 hours, and the inhibition ring diameters were measured using CA-400 (Dainippon Seiki). The concentrations of the test samples were measured using a calibration curve determined by second-order regression from the logarithmic values of the drug concentration of the calibration curve serial dilutions and the inhibition ring diameters.\nFor the tissue concentration (μg/ml), the concentration (μg/ml) in the homogenate supernatant was determined from the tissue weight (g) and the added phosphate buffer amount (ml) and using the following equation: [Tissue concentration]=[Homogenate concentration]×([Tissue weight]+[Buffer solution amount])/[Tissue weight]\nFor each drug, the pharmacokinetic parameters in rats were calculated based on mean concentration, by non-compartmental analysis, and using the pharmacodynamics analysis software, PSAG-CP (Asmedica)."}, "[2]": {"test": "Urinary excretion after oral administration (excretion test groups)", "format": "in vivo", "settings": "fasting rats, 20 mg/kg, urine 0-24 h", "experimental": "as §1, with “Inc.). […]” for “Inc.).”\nDetermination of drug concentrations in liquid samples were quantified by an agar well method bioassay using the B. subtilis ATCC6051 strain as the test organism. […] After addition of the sample, the plate medium was set still for 1 hour at 4° C. to perform preliminary dispersion and then culturing at 37° C. was performed for approximately 18 hours, and the inhibition ring diameters were measured using CA-400 (Dainippon Seiki). The concentrations of the test samples were measured using a calibration curve determined by second-order regression from the logarithmic values of the drug concentration of the calibration curve serial dilutions and the inhibition ring diameters.\nThe urinary excretion rate (%) was determined from the amount (μg) of drug administered, amount (ml) of urine (or washing solution), and concentration (μ/ml) in urine (or washing solution): [(Urinary excretion rate]=100×([Amount of urine]×[Concentration in urine])/[Amount of drug administered] Method 3: Calculation of Pharmacokinetic Parameters"}, "[3]": {"settings": "kidney/serum, kidney, read-out: AUC0-4h tissue/serum ratio Kidney"}, "[4]": {"settings": "liver/serum, liver, read-out: AUC0-4h tissue/serum ratio Liver"}, "[5]": {"settings": "lung/serum, lung, read-out: AUC0-4h tissue/serum ratio Lung"}}, "note": "Where two headings read alike, the source gives them in different places."}
{"smiles": "Cc1c(N2CC[C@@H](C3(N)CC3)C2)c(F)cc2c(=O)c(C(=O)O)cn([C@@H]3C[C@@H]3F)c12", "note": "[Reference drug 1, 7-[3-(R)-(1-aminocyclopropyl)pyrrolidin-1-yl]-6-fluoro-1-[2-(S)-fluoro-1-(R)-cyclopropyl]-8-methyl-1,4-dihydro-4-oxoquinoline-3-carboxylic acid, reference compound]", "values": [{"measurement": "Tissue AUC0-4h Kidney", "setting": "[1]; kidney", "result": 7.1}, {"measurement": "Tissue Cmax Kidney", "setting": "[1]; kidney", "result": 5.0, "unit": "µg/g"}, {"measurement": "Tissue AUC0-4h Liver", "setting": "[1]; liver", "result": 10.4}, {"measurement": "Tissue Cmax Liver", "setting": "[1]; liver", "result": 11.6, "unit": "µg/g"}, {"measurement": "Tissue AUC0-4h Lung", "setting": "[1]; lung", "result": 5.3}, {"measurement": "Tissue Cmax Lung", "setting": "[1]; lung", "result": 3.0, "unit": "µg/g"}, {"measurement": "Kp", "setting": "[1]; [3]", "result": 7.1}, {"measurement": "Kp", "setting": "[1]; [4]", "result": 10.4}, {"measurement": "Kp", "setting": "[1]; [5]", "result": 5.3}, {"measurement": "Cmax", "setting": "[1]", "result": 1600, "unit": "ng/mL"}, {"measurement": "AUC(0-t)", "setting": "[1]", "result": 2300, "unit": "ng·h/mL"}, {"measurement": "half-life", "setting": "[1]", "result": 1, "unit": "h"}, {"measurement": "Urinary recovery ratio (per dose) 0-24 h", "setting": "[2]", "result": 1.8, "unit": "%"}]}
{"smiles": "Cc1c(N2CC[C@@H](C3(N)CC3)C2)ccc2c(=O)c(C(=O)O)cn([C@@H]3C[C@@H]3F)c12", "note": "[Example 1, 7-[3-(R)-(1-aminocyclopropyl)pyrrolidin-1-yl]-1-[2-(S)-fluoro-1-(R)-cyclopropyl]-1,4-dihydro-8-methyl-4-oxoquinoline-3-carboxylic acid]", "values": [{"measurement": "Tissue AUC0-4h Kidney", "setting": "[1]; kidney", "result": 29.0}, {"measurement": "Tissue Cmax Kidney", "setting": "[1]; kidney", "result": 14.2, "unit": "µg/g"}, {"measurement": "Tissue AUC0-4h Liver", "setting": "[1]; liver", "result": 34.5}, {"measurement": "Tissue Cmax Liver", "setting": "[1]; liver", "result": 27.4, "unit": "µg/g"}, {"measurement": "Tissue AUC0-4h Lung", "setting": "[1]; lung", "result": 10.0}, {"measurement": "Tissue Cmax Lung", "setting": "[1]; lung", "result": 3.8, "unit": "µg/g"}, {"measurement": "Kp", "setting": "[1]; [3]", "result": 29}, {"measurement": "Kp", "setting": "[1]; [4]", "result": 34.5}, {"measurement": "Kp", "setting": "[1]; [5]", "result": 10}, {"measurement": "Cmax", "setting": "[1]", "result": 1700, "unit": "ng/mL"}, {"measurement": "AUC(0-t)", "setting": "[1]", "result": 3100, "unit": "ng·h/mL"}, {"measurement": "half-life", "setting": "[1]", "result": 1.2, "unit": "h"}, {"measurement": "Urinary recovery ratio (per dose) 0-24 h", "setting": "[2]", "result": 8.1, "unit": "%"}]}
